In one experiment the target is Cholinesterase (Homo sapiens, UniProt P06276). Kind of experiment: Inhibition of human BChE using butyrylthiocholine iodide as substrate incubated for 15 mins by spectrophotometric Ellman's method. For orientation: Ellman's reagent forms a yellow product with free thiols.
For experiment [1], the target named is T1, Acetylcholinesterase (Homo sapiens, UniProt P22303). As to the kind of experiment: Inhibition of AChE (unknown origin).
The subject of experiment [2] is Escherichia coli. As to the kind of experiment: microbe, parasite or virus in culture. The following applies: ATCC 25922, 24 h.
The subject of another experiment is Proteus vulgaris. As to the kind of experiment: Antimicrobial activity against Proteus vulgaris NCIM 2813 assessed as zone of inhibition incubated for 24 hrs by agar diffusion method. The class given is functional. (In general: A growth-free zone around the sample is the usual read-out of agar diffusion tests.)
Experiment [3] deals with Staphylococcus aureus. As to the kind of experiment: Antibacterial activity against Staphylococcus aureus ATCC 25923 assessed as zone of inhibition by agar diffusion method. The class given is functional.
In the next experiment the test system is Bacillus subtilis. As to the kind of experiment: Antibacterial activity against Bacillus subtilis assessed as zone of inhibition. The class given is functional.
For experiment [4], the system named is Escherichia coli. Kind of experiment: Antibacterial activity against Escherichia coli assessed as reduction in bacterial growth incubated for 24 hrs by Mueller-Hinton agar based analysis. The format is functional.
A further experiment relates to Pseudomonas aeruginosa. Kind of experiment: Antibacterial activity against Pseudomonas aeruginosa ATCC 15442 assessed as reduction in bacterial growth incubated for 24 hrs by Mueller-Hinton agar based analysis. The class given is functional.
In experiment [5] the test system is Staphylococcus epidermidis. As to the kind of experiment: Antimicrobial activity against Staphylococcus epidermidis ATCC 12228 assessed as reduction in bacterial growth incubated for 24 hrs by Mueller-Hinton agar based analysis. The class given is functional.
Experiment [6] relates to Staphylococcus aureus. Kind of experiment: Antimicrobial activity against Staphylococcus aureus […] assessed as reduction in bacterial growth incubated for 24 hrs by Mueller-Hinton agar based analysis. The class given is functional.
Another experiment deals with Mushroom tyrosinase (Agaricus bisporus, UniProt O42713+Q00024+C7FF04+C7FF05). Kind of experiment: Inhibition of mushroom tyrosinase using L-DOPA as substrate by spectrophotometric analysis. The class given is protein assay.
For experiment [7], the target named is T1, Acetylcholinesterase. Kind of experiment: Inhibition of AChE (unknown origin) using acetylthiocholine iodide as substrate by Ellman's method.
In another experiment the test system is MIA PaCa-2. Kind of experiment: Growth inhibition of human MIA PaCa-2 cells measured for 48 hrs by SRB assay. The class given is functional.
The next experiment has as its system Phytophthora capsici. As to the kind of experiment: Antifungal activity against Phytophthora capsici. The class given is functional, organism-based.
Experiment [8] in a line: Antioxidant activity assessed as DPPH radical scavenging activity incubated for 20 mins by spectrophotometric method. The class given is functional. (The DPPH test is a chemical assay of radical scavenging.)
The next experiment concerns Salmonella typhimurium. As to the kind of experiment: Antibacterial activity against Salmonella typhimurium DT104 assessed as inhibition of bacterial growth incubated for 18 hrs by CLSI protocol based microbroth dilution method. The class given is functional, Salmonella enterica subsp. enterica serovar Typhimurium. The following applies: Salmonella enterica.

Converted amounts (≈) assume the structure as drawn.

T1 sequence (P22303 whole entry): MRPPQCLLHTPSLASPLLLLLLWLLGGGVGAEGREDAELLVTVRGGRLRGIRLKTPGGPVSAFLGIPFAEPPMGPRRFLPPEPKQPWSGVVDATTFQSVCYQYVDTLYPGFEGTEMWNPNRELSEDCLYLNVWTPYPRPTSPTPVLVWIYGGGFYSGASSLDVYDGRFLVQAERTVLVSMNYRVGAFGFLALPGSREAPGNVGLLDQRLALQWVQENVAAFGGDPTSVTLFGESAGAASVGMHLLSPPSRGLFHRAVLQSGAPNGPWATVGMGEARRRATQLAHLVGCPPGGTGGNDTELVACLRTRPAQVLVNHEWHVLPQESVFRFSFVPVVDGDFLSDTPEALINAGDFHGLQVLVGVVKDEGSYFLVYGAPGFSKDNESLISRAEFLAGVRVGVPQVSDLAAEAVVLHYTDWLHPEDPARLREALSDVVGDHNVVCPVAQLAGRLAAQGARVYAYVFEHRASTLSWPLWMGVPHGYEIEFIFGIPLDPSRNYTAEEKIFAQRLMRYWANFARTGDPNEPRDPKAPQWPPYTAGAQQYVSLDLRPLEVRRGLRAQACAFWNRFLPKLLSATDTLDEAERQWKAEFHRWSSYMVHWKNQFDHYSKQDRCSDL
Chain of Cholinesterase (P06276 whole entry): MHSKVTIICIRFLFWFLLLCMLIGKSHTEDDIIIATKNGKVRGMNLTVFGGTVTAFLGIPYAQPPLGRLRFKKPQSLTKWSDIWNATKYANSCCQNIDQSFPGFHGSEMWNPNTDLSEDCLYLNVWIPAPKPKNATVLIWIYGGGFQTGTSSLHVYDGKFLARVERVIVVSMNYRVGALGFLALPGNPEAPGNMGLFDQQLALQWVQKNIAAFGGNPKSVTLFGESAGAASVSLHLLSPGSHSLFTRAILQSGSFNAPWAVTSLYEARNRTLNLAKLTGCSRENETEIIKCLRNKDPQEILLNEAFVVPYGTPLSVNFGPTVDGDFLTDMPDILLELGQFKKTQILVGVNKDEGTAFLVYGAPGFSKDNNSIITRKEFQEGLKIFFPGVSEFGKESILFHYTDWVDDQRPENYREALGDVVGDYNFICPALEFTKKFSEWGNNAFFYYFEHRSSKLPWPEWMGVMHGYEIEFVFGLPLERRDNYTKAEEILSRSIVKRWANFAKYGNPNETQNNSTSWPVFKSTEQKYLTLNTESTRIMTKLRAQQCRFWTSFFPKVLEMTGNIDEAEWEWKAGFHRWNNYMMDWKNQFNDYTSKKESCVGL

What is called IC50 is the concentration that inhibits the measured activity by half. As to `CNC(=O)COc1cc(C(C)C)ccc1C`, the IC50 against Cholinesterase was determined as 50 nM; at Acetylcholinesterase [1] it was 1930 nM.
With `CC(=O)Oc1cc(C(C)C)ccc1C`, the MIC in the experiment on Escherichia coli [2] is 11.7 µg/mL (≈ 60.9 µM).
Consider `Cc1ccc(C(C)C)cc1OCC(=O)Nc1ccc(Cl)cc1`, for which the “inhibition zone (IZ)” value is on record as 10 mm with Proteus vulgaris, 20 mm with Staphylococcus aureus [3] and 18 mm with Bacillus subtilis.
In the case of `C[Se]CC[C@H](NC(C)=O)C(=O)Oc1cc(C(C)C)ccc1C`, the MIC with Escherichia coli [4] stood at 5 µg/mL (≈ 13.5 µM); in the experiment with Pseudomonas aeruginosa, 5 µg/mL (≈ 13.5 µM); in [5] it was 5 µg/mL (≈ 13.5 µM); in the experiment on Staphylococcus aureus [6], 10 µg/mL (≈ 27 µM).
`Cc1ccc(C(C)C)cc1OCC(=O)NCc1ccc2c(c1)OCO2`: the IC50 against Cholinesterase turned out to be 50 nM; against Acetylcholinesterase [1], 1930 nM.
Turning to `Cc1ccc(C(C)C)cc1OC(=O)[C@@H]1CSC(=O)N1`, the MIC (with Escherichia coli [4]; with Pseudomonas aeruginosa; in [5]; in the experiment with Staphylococcus aureus [6]) was 10 µg/mL (≈ 35.8 µM) each time.
`CCN(CC)C(=O)COc1cc(C(C)C)ccc1C`: the IC50 against Cholinesterase worked out at 50 nM; against Acetylcholinesterase [1], 1930 nM.
Take `Cc1ccc(C(C)C)cc1OC(=O)COC(=O)c1ccc(O)cc1O`: the IC50 at Mushroom tyrosinase came to 6700 nM.
For the compound `Cc1ccc(C(C)C)cc1OCC(=O)Nc1cccc(Cl)c1`, the entries for the “inhibition zone (IZ)” value with Proteus vulgaris, in the experiment with Staphylococcus aureus [3] and with Bacillus subtilis were 16 mm, 17 mm and 21 mm, respectively.
For the compound `Cc1ccc(C(C)C)cc1OC(=O)Cc1ccccc1`, the MIC in the experiment with Escherichia coli [2] was found to be 11.7 µg/mL (≈ 43.6 µM).
`CCCCCCCNC(=O)COc1cc(C(C)C)ccc1C`: the “inhibition zone (IZ)” value in the experiment on Proteus vulgaris stood at 7 mm; with Bacillus subtilis, 6 mm.
Turning to `Cc1ccc(C(C)C)cc1OC(=O)[C@@H]1CSCN1C(=O)C(F)(F)F`, the MIC in the experiment on Escherichia coli [4] was determined as 5 µg/mL (≈ 13.8 µM); in the experiment with Pseudomonas aeruginosa, 10 µg/mL (≈ 27.7 µM); in experiment [5], 2.5 µg/mL (≈ 6.92 µM); in the experiment on Staphylococcus aureus [6], 5 µg/mL (≈ 13.8 µM).
For the compound `Cc1ccc(C(C)C)cc1OCC(=O)N1CCCCC1`, the IC50 came out at 50 nM at Cholinesterase and 1930 nM on Acetylcholinesterase [1].
With `Cc1ccc(C(C)C)cc1OC(=O)COC(=O)/C=C/c1ccccc1`, the 50% inhibitory concentration (IC50) at Mushroom tyrosinase is 7700 nM.
With `Cc1ccc(C(C)C)cc1OCC(O)CNCCC1=CCCCC1` (stereo not given), inhibition on Acetylcholinesterase [7] was half-maximal at 136 nM (IC50).
As for `Cc1ccc(C(C)C)cc1OCC(=O)NC1CCCCC1`, the values for the IC50 on Cholinesterase and against Acetylcholinesterase [1] were 50 nM and 1930 nM, respectively.
Usually GI50 stands for the concentration giving 50% growth inhibition. High values mean less potent growth inhibition, low ones more potent growth inhibition. In the experiment with MIA PaCa-2, `Cc1ccc(C(C)C)c(/C=N/c2c(C(C)C)ccc(C)c2O)c1O` yielded a GI50 of 16.9 µg/mL (≈ 51.9 µM).
As usually defined, the EC50 is the concentration needed to bring the measured effect to its halfway point. A higher EC50 goes with a less potent agent. In the experiment on Phytophthora capsici, `Cc1ccc(C(C)C)cc1OS(=O)(=O)c1cccs1` gave an EC50 of 0.06124 µg/mL (≈ 0.207 µM).
With `Cc1ccc(C(C)C)cc1OC(=O)COC(=O)/C=C/c1ccc(Cl)cc1`, the IC50 against Mushroom tyrosinase was 6700 nM.
As to `Cc1ccc(C(C)C)cc1OCC(=O)N/N=C/c1c(C(C)C)ccc(C)c1O`, the IC50 in experiment [8] is 0.16 µg/mL (≈ 0.418 µM).
Turning to `Cc1ccc(C(C)C)cc1OC(=O)COC(=O)c1cccc(O)c1`, the IC50 at Mushroom tyrosinase was 14900 nM.
On to `Cc1cc(Cc2cc(C)c(O)cc2C(C)C)c(C(C)C)cc1O`, for which the IC50 in experiment [8] came out at 122 µg/mL (≈ 390 µM).
In the experiment on Phytophthora capsici, `CCS(=O)(=O)Oc1cc(C(C)C)ccc1C` returned an EC50 of 0.0666 µg/mL (≈ 0.275 µM).
Take `CCCNC(=O)COc1cc(C(C)C)ccc1C`: the figures for the IC50 against Cholinesterase and against Acetylcholinesterase [1] were 50 nM and 1930 nM, respectively.
As for `Cc1ccc(C(C)C)cc1OCC(=O)O`, the MIC with Salmonella typhimurium came out at 0.1 µg/mL (≈ 0.48 µM).
On to `Cc1ccc(C(C)C)cc1OCC(=O)NCCN1CCCC1`, for which the values for the IC50 against Cholinesterase and on Acetylcholinesterase [1] were 50 nM and 1930 nM, respectively.
For `Cc1ccc(C(C)C)cc1OCC(=O)N(C(C)C)C(C)C`, in that order: 50 nM and 1930 nM.
Take `Cc1ccc(C(C)C)cc1OC(=O)CC(C)C`: in the experiment on Escherichia coli [2], the MIC turned out to be 11.7 µg/mL (≈ 49.9 µM).
`Cc1ccc(C(C)C)cc1OCC(O)CNC(C)(C)C` (stereo not given): inhibition against Acetylcholinesterase [7] was half-maximal at 136 nM (IC50).
On to `Cc1ccc(C(C)C)cc1OCC(=O)NCCN1CCOCC1`, for which the IC50 against Cholinesterase was determined as 50 nM; against Acetylcholinesterase [1] it was 1930 nM.
Take `CCSC[C@H](NC(C)=O)C(=O)Oc1cc(C(C)C)ccc1C`: the MIC (in the experiment on Escherichia coli [4]; with Pseudomonas aeruginosa; in experiment [5]; in the experiment on Staphylococcus aureus [6]) was 10 µg/mL (≈ 30.9 µM) in each case.
For `CSCC[C@H](NC(C)=O)C(=O)Oc1cc(C(C)C)ccc1C`, the MIC in the experiment on Escherichia coli [4] was found to be 10 µg/mL (≈ 30.9 µM); with Pseudomonas aeruginosa it was 5 µg/mL (≈ 15.5 µM); in experiment [5], 10 µg/mL (≈ 30.9 µM); in the experiment with Staphylococcus aureus [6], 10 µg/mL (≈ 30.9 µM).
Take `CC(=O)N[C@@H](CS)C(=O)Oc1cc(C(C)C)ccc1C`: the MIC in the experiment on Escherichia coli [4] stood at 10 µg/mL (≈ 33.9 µM); in the experiment on Pseudomonas aeruginosa, 10 µg/mL (≈ 33.9 µM); in experiment [5], 5 µg/mL (≈ 16.9 µM); with Staphylococcus aureus [6], 10 µg/mL (≈ 33.9 µM).

The values above are taken from ChEMBL document CHEMBL5576070, “The recent discovery of a promising pharmacological scaffold derived from carvacrol: A review” (Bioorg Med Chem Lett, 2024).
